Measured values from ChEMBL document CHEMBL4346710, “Discovery of 7H-pyrrolo[2,3-d]pyrimidine derivatives as selective covalent irreversible inhibitors of interleukin-2-inducible T-cell kinase (Itk)” (Eur J Med Chem, 2019).
The source made the active and inactive calls. The calls are words filed in the database; no cut-off is given here.

What was measured:
Jurkat = experiment: Induction of apoptosis in human Jurkat cells assessed as downregulation of caspase3 at 1 to 20 uM incubated for 24 hrs by Western blot analysis; type: functional, cell-based
[1] = molecular target: T1, Tyrosine-protein kinase ITK/TSK (Homo sapiens, UniProt Q08881); experiment: Inhibition of recombinant human N-terminal His6-tagged ITK (352 to 617 residues) expressed in baculovirus infected Sf21 insect cells using STK substrate by HTRF assay
T1 sequence (Q08881 whole entry): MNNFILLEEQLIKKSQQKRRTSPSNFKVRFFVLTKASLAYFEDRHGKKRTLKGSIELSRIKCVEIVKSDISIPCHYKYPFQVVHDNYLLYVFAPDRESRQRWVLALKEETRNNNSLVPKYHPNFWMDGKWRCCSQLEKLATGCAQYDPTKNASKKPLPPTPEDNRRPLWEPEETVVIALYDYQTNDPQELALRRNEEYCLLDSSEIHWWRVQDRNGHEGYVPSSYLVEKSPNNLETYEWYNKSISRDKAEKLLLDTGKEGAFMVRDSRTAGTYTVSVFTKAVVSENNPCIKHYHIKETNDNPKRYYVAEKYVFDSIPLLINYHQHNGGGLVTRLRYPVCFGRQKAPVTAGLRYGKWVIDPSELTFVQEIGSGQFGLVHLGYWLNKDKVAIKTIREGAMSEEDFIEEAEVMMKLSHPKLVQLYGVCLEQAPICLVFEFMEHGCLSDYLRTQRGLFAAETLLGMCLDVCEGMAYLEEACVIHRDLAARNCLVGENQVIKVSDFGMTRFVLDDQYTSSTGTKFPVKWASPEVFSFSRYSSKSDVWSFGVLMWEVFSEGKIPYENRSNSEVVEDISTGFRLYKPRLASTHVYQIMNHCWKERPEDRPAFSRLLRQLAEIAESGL

[2] = molecular target: T2, Tyrosine-protein kinase ITK/TSK (Homo sapiens) (UniProt Q08881); experiment: Inhibition of recombinant full-length human GST-tagged ITK cytoplasmic domain expressed in baculovirus expression system assessed as enzyme residual activity at 0.4 uM using fluorophore-labeled tyrosine-1 peptide as substrate incubated for 60 mins by Z'-LYTE assay relative to control
T2 sequence (whole entry): T1 sequence (Q08881 whole entry)

CCRF-CEM [3] = experiment: Induction of apoptosis in human CCRF-CEM cells assessed as upregulation of cleaved PARP at 1 to 5 uM incubated for 24 hrs by Western blot analysis; type: functional, cell-based
MOLT-4 = experiment: Growth inhibition of human MOLT4 cells incubated for 72 hrs by CellTiter-Glo luminescent cell viability assay; type: functional; details: MOLT-4, 72 h
[4] = molecular target: T3, Tyrosine-protein kinase JAK3 (Homo sapiens, UniProt P52333); experiment: Inhibition of recombinant human N-terminal His6-tagged JAK3 (781 to end residues) expressed in baculovirus infected Sf21 cells using STK as substrate by HTRF assay
T3 sequence (P52333 whole entry): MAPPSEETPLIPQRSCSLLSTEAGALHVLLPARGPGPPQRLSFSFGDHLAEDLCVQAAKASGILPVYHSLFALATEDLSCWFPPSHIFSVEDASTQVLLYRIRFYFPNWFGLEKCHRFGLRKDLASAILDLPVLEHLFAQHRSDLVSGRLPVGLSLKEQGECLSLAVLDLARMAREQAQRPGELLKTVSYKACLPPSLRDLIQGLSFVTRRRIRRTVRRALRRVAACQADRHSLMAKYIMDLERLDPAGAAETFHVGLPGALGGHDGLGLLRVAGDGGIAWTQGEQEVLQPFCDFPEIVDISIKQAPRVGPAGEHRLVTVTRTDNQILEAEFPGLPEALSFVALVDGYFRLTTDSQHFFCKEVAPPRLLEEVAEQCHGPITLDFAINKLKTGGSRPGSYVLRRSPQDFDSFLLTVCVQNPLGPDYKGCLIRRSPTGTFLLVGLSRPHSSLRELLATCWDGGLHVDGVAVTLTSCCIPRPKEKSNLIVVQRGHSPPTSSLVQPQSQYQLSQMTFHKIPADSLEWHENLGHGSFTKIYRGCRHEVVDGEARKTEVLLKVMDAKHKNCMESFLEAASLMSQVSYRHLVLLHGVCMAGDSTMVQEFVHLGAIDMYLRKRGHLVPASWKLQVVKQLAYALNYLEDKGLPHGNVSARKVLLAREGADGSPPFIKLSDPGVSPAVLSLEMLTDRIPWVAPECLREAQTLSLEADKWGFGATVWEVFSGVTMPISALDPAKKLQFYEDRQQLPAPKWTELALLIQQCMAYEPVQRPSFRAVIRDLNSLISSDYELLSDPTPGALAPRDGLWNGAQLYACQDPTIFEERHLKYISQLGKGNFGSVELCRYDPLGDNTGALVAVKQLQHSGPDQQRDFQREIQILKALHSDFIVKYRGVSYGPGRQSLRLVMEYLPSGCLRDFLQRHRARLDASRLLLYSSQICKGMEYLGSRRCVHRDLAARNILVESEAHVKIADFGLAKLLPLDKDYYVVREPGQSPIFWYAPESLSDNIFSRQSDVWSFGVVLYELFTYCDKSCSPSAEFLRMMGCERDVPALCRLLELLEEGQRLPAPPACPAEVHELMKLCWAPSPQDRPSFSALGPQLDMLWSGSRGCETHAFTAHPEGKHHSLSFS

[5] = molecular target: cAMP-dependent protein kinase catalytic subunit alpha (Homo sapiens) (UniProt P17612); experiment: Inhibition of recombinant human His-tagged PRKACA catalytic domain (1 to 351 residues) expressed in Escherichia coli assessed as enzyme residual activity at 0.4 uM using fluorophore-labeled serine/threonine-1 peptide as substrate incubated for 60 mins by Z'-LYTE assay relative to control
[6] = molecular target: Rho-associated protein kinase 2 (Homo sapiens) (UniProt O75116); experiment: Inhibition of recombinant human N-terminal GST-tagged ROCK2 catalytic domain (1 to 552 residues) expressed in baculovirus expression system assessed as enzyme residual activity at 0.4 uM using fluorophore-labeled serine/threonine-13 peptide as substrate incubated for 60 mins by Z'-LYTE assay relative to control
CCRF-CEM [7] = experiment: Induction of apoptosis in human CCRF-CEM cells assessed as downregulation of PARP at 1 to 5 uM incubated for 24 hrs by Western blot analysis; type: functional, cell-based
[8] = molecular target: Epidermal growth factor receptor (Homo sapiens, UniProt P00533); experiment: Inhibition of recombinant human N-terminal GST-tagged EGFR kinase domain (696 to end residues) expressed in baculovirus infected Sf21 insect cells using STK as substrate by HTRF assay
[9] = molecular target: Serine/threonine-protein kinase Chk2 (Homo sapiens) (UniProt O96017); experiment: Inhibition of recombinant full length human His-tagged CHEK2 expressed in baculovirus expression system assessed as enzyme residual activity at 0.4 uM using fluorophore-labeled serine/threonine-07 peptide as substrate incubated for 60 mins by Z'-LYTE assay relative to control
[10] = molecular target: Protein kinase C theta type (Homo sapiens) (UniProt Q04759); experiment: Inhibition of recombinant full length human His-tagged PRKCQ expressed in baculovirus expression system assessed as enzyme residual activity at 0.4 uM using fluorophore-labeled serine/threonine-7 peptide as substrate incubated for 60 mins by Z'-LYTE assay relative to control
HEK-293T = experiment: Growth inhibition of HEK293T cells incubated for 72 hrs by CellTiter-Glo luminescent cell viability assay; type: functional; details: Homo sapiens

Sequence of Serine/threonine-protein kinase Chk2 (Homo sapiens) (O96017 whole entry): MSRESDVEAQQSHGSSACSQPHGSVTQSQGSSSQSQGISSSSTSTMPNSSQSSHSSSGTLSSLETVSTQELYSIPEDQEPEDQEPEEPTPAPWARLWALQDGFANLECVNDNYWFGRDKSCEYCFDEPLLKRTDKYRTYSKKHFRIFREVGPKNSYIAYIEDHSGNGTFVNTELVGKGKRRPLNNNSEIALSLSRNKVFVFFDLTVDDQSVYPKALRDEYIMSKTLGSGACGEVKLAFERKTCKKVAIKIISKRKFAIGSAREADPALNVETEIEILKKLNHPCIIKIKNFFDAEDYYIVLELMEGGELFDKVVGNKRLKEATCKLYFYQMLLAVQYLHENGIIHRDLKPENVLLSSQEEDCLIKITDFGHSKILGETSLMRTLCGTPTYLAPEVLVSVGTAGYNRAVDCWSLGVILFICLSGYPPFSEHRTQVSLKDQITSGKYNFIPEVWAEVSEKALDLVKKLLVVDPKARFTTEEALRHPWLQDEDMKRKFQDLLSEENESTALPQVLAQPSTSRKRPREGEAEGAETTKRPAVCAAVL
Sequence of Rho-associated protein kinase 2 (Homo sapiens) (O75116 whole entry, looked up, the tested form may be a part): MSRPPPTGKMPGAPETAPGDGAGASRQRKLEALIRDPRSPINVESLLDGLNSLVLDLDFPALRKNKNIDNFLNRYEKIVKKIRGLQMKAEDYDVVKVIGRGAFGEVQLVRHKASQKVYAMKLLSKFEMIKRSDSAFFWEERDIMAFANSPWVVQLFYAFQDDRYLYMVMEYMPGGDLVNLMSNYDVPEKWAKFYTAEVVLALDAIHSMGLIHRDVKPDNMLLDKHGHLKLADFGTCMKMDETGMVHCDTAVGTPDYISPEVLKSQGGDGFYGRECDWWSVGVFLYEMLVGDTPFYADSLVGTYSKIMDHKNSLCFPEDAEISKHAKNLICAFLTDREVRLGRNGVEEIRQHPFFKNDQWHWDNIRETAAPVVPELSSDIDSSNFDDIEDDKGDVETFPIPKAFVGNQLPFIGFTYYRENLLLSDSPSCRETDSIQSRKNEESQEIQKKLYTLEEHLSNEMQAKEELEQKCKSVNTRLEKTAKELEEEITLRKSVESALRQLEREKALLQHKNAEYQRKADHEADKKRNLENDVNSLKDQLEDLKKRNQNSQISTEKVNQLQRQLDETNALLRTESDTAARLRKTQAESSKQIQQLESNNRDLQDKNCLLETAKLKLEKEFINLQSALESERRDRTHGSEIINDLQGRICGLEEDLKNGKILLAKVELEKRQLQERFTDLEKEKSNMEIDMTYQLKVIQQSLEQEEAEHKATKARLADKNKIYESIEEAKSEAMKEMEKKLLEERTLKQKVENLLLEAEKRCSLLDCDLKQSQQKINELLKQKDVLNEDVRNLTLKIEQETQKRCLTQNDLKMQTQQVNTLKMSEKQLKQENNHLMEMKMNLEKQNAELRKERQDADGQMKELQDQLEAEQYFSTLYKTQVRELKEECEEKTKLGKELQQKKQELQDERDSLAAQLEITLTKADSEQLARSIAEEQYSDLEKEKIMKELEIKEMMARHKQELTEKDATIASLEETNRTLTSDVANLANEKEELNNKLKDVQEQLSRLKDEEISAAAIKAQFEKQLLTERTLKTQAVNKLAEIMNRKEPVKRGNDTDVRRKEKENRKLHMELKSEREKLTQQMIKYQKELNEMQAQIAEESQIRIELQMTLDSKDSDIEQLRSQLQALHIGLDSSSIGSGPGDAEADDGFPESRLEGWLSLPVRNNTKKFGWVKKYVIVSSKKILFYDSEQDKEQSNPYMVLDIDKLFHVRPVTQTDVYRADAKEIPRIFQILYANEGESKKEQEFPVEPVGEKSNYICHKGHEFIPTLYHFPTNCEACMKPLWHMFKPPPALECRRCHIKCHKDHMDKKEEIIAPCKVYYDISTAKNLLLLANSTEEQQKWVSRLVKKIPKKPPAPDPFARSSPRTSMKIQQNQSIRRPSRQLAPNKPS
Sequence of Protein kinase C theta type (Homo sapiens) (Q04759 whole entry, looked up): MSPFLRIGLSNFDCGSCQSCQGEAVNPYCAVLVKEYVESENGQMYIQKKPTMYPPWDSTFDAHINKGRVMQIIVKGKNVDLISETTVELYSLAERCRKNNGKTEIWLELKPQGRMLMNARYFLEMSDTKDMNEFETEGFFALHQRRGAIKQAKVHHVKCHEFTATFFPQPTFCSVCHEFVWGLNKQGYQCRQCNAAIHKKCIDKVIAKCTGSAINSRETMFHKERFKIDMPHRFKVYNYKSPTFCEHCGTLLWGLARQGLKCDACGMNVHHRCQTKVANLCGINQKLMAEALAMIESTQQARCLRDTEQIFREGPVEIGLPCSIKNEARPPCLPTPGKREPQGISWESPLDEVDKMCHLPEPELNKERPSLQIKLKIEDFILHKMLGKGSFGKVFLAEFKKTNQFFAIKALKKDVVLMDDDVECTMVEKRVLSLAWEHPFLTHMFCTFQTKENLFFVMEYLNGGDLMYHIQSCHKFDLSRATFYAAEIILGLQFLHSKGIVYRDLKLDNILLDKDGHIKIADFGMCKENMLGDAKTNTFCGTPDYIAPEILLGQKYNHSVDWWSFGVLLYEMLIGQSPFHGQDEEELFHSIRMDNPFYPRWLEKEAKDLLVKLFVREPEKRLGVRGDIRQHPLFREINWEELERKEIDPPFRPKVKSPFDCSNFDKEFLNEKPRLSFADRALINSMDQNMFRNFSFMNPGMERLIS
Sequence of Epidermal growth factor receptor (P00533 whole entry, the tested form may be a part): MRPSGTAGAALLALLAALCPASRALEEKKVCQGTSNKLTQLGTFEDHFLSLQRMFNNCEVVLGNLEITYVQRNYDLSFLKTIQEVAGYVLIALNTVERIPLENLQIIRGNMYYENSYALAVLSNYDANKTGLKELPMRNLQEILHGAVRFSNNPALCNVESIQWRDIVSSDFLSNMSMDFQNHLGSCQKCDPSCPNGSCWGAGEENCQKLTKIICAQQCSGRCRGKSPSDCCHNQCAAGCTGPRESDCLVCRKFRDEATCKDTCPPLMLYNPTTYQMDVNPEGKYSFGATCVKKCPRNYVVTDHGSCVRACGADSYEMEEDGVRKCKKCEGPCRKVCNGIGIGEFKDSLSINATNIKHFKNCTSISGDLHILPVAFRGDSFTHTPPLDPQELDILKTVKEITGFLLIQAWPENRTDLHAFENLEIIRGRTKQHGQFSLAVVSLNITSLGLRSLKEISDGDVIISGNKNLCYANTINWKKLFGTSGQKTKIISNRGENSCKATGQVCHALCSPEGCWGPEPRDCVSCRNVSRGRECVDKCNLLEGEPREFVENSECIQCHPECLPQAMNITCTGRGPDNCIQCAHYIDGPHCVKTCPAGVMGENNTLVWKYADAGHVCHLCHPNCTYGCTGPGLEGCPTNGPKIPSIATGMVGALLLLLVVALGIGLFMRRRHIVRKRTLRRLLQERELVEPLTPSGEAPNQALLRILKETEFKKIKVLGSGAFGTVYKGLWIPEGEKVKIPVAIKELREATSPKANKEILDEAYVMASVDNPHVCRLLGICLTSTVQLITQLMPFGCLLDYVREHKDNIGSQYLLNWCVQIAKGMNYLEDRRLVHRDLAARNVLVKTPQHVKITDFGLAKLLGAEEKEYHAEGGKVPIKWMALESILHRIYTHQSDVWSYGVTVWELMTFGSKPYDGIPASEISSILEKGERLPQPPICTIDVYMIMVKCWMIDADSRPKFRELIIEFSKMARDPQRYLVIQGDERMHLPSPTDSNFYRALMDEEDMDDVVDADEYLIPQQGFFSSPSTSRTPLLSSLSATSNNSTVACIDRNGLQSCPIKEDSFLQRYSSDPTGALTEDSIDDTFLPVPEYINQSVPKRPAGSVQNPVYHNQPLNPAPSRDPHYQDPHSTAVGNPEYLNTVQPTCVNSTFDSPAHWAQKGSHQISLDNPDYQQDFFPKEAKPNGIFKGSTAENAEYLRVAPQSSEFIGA

C=CC(=O)N1CCC(Oc2nc(Nc3ccc(N4CCOCC4)cc3)nc3[nH]cc(-c4cncc(NC)n4)c23)CC1
Activity (Jurkat): Active
IC50 [1]: 3.7 nM
Ki [1]: 6.3 nM
Activity [2]: 1%
Activity (CCRF-CEM [3]): Active
GI50 (MOLT-4): 167 nM
IC50 [4]: 123 nM
Activity [5]: 86%
Activity [6]: 96.3%
Activity (CCRF-CEM [7]): Active
IC50 [8]: 1260 nM
Activity [9]: 78.7%
Activity [10]: 89%
GI50 (HEK-293T): 544 nM
